Reference: US20220267288A1, “CARDIAC THERAPEUTIC” (priority 2019, published 2022)
Entries after “also recorded” stand apart in the source; their conditions may differ.

Tests used:
[1] = Metabolic stability (substrate depletion) with HLM; format: in vitro ADME, human; details: for elimination rate constant k by HLM / half-life at 1 μM: 1 μM substrate, HLM 0.5 mg/mL; for half-life at 1 μM / microsomal CLint at 1 μM: human, pooled human liver microsomes, pH 7.4; for half-life at 1 μM: read-out: T1/2 by HLM; for microsomal CLint at 1 μM: substrate depletion, read-out: Intrinsic clearance, CLint HLM
Procedure: The metabolic stability experiments were performed to derive intrinsic clearance (CLint) values via the substrate depletion method. […] NADPH A was subsequently added to initiate the reaction. […] The reaction mixtures were incubated at 37° C. with gentle agitation. At the respective time points (0-60 min), 80 μL of the reaction mixture was quenched using an equal volume of ice-cold ACN with 1 μM tamoxifen as internal standard (IS). The samples were then centrifuged at 3220 g at 4° C. for 30 min before transferring the supernatant to a 96-well plate for liquid chromatography-tandem mass spectrometry (LC-MS/MS) analysis.
The mean of triplicate peak area ratios for each compound was normalized to that of the same compound at the 0 min time point to obtain the percentage of substrate remaining at each time point. This was plotted against incubation time for each compound and the data was then fitted to a one-phase decay model using GraphPad Prism software (version 8.02; GraphPad Inc., San Diego, Calif.) to obtain an estimation for the elimination rate constant (k). CLint was then calculated based on equation 3:
In equation 3, k=elimination rate constant (min^−1); V=volume of incubation mixture (mL); P=amount of protein in mixture (mg).

hiPSC-CM = experiment: Beat-to-beat variability (BBV), Poincaré plots; format: cell-based, human; details: 10 nM
Source text: The BBV calculations were done using Kubios HRV2.2 (Department of Applied Physics, University of Eastern Finland, Kuopio, Finland)^4. BBV is visualised as scatterplots known as Poincaré plots. In these plots, each time interval between two successive beats [inter-beat interval (RRn)] is plotted against the subsequent interval (RRn+1). Poincaré plot descriptors SD1 and SD2 define the extent of variability. SD1 represents a measure for short-term variability, whereas SD2 describes long-term variability^5.

[2] = In vivo pharmacokinetic studies in dogs; details: for acute toxicity and fatality in vivo: PK study
Procedure: All experiments were approved by the Animal Research Committee for Animal Experimentation of Toho University (No. 12-52-151) and performed in accordance with the Guidelines for the Care and Use of Laboratory Animals of Toho University. […] Plasma samples were stored at −80° C. and thawed in ice before use.
Ice cold NDEA internal standard (IS) solution was used for protein precipitation at a plasma:IS ratio of 1:3. The mixture was vortex-mixed for 1 min, followed by centrifugation at 14,000 g at 4° C. for 15 min. The supernatant was then transferred into a vial for LC/MS/MS analysis.
The LC/MS/MS system consisted of Infinity ultra-high-pressure liquid chromatography (UHPLC) system (Agilent Technologies Inc., Santa Clara, Calif.) with the AB SCIEX QTRAP® 5500 tandem mass spectrometry (MS/MS) system (AB SCIEX, Framingham, Mass.). MultiQuant software version 1.4.0.18067 (Applied Biosystems) was used to perform all chromatographic peak integration.
Chromatographic separation was performed using ACQUITY UPLC BEH C18 column, 1.7 μm, 2.1×50 mm (Waters, Milford, Mass.), with a gradient elution programme. The mobile phases were 0.2% acetic acid in 5 mM ammonium acetate in water (A) and 0.2% acetic acid in ACN (B). The elution conditions were linear gradient 30-95% B (0-1.60 min), isocratic at 95% B (1.61-1.99 min), and isocratic at 30% B (2.00-2.50 min). Multiple reaction monitoring (MRM) transitions were optimized for NDEA (internal standard, IS), dronedarone and poyendarone.
Individual pharmacokinetic parameters were estimated using NCA for IV bolus data (Model 201), using WinNonlin® (Pharsight, USA). […] Data points included in the calculation of Lambda Z (Az) were first determined by WinNonlin®, and then visually assessed and modified accordingly. Other parameters calculated include apparent total plasma clearance (CL), apparent volume of distribution based on terminal phase (Vz), apparent elimination half-life (T1/2), apparent volume at steady state (Vss), mean residence time (MRT) and MRT extrapolated to infinity (MRTinf). […]

CYP3A4 = molecular target: T1, CYP3A4 (Homo sapiens, UniProt P08684); experiment: Time- and concentration-dependent inactivation of CYP3A4, rivaroxaban probe; format: in vitro ADME; details: for KI (inactivation): human, recombinant CYP3A4, pH 7.4, probe rivaroxaban (50 μM), in vitro data obtained, rivaroxaban probe, read-out: Mechanism-based inactivation KI CYP3A4
T1 construct: purchased BD Gentest (Woburn, Mass.)
Procedure: Incubations were conducted in triplicates in 96-well plates. Primary incubation mixtures comprising various concentrations of inhibitor (0-20 μM) were pre-incubated at 37° C. for 3 min with CYP3A4 or CYP3A5 (20 pmol/mL) and NADPH B in potassium phosphate buffer (100 mM, pH 7.4). To initiate the enzymatic reaction, 5 μL NADPH A was added to the primary incubation. The final primary incubation mixture volume was 100 μL and contained <1% v/v organic solvent. At different pre-incubation time points (3, 8, 15, 22, 30, and 45 min) after the addition of NADPH A, 5 μL aliquots of the primary incubation were transferred to 95 μL of the secondary incubation containing 50 μM rivaroxaban, the NADPH A and B, and potassium phosphate buffer (100 mM, pH 7.4) to yield a 20-fold dilution. The secondary incubation mixtures were incubated at 37° C. for 2 h with CYP3A4 or CYP3A5 before 80 μL aliquots were removed and quenched with an equal volume of ice-cold ACN containing 4 μM dexamethasone as IS. The samples were then centrifuged at 3220 g at 4° C. for 30 min before transferring the supernatant to a 96-well plate for liquid chromatography-tandem mass spectrometry (LC-MS/MS) analysis. The main rivaroxaban metabolite, morpholinone hydroxylated metabolite, was quantified using LC-MS/MS analysis.
The mean of triplicate peak area ratios for each inhibitor concentration and pre-incubation time was normalized to that of 0 μM inhibitor with the same pre-incubation time. The amount of rivaroxaban metabolite formed during the secondary incubation, a measure of the probe substrate activity remaining, was computed and the natural logarithm of this measure was plotted against inactivation pre-incubation time for each inactivator concentration. For each concentration, the data was then fitted to a linear regression model, through which kobs (apparent inactivation rate constant) was obtained as the negative gradient of the linear regression. […]

T1 sequence (P08684 whole entry): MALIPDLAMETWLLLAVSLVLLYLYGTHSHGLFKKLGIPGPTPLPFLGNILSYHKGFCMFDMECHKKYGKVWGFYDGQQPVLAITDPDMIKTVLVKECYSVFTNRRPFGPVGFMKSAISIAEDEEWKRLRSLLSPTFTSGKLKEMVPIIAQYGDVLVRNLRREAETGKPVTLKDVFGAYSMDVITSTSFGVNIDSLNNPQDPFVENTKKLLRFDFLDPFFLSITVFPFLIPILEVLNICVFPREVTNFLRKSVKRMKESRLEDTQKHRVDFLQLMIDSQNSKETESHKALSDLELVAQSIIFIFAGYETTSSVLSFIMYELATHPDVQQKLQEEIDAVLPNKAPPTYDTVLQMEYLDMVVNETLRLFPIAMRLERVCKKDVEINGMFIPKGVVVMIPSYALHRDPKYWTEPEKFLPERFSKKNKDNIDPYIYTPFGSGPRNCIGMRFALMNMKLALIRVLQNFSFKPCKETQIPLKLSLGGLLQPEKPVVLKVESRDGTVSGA

SMILES | elimination rate constant k by HLM [1] [min⁻¹] | half-life at 1 μM [1] [min] | microsomal CLint at 1 μM [1] [µL/min/mg] | beat-to-beat variability (BBV), inter-beat intervals in Poincaré plot (hiPSC-CM) | acute toxicity and fatality in vivo [2] | KI (inactivation) (CYP3A4) [µM] | MBI potency against CYP3A4 (CYP3A4; rivaroxaban probe substrate) [AV min^−1] | plasma disposition profile, clearance and volume of distribution compared between poyendarone and dronedarone ([2]; 3.0 mg/kg IV bolus, 3 mg/kg)
CCCCc1oc2ccc(NS(C)(=O)=O)cc2c1C(=O)c1ccc(OCCCN(CCCC)CCCC)cc1.Cl [Dronedarone] | 0.06446 | 10.8 | 129 | do not cluster at the centroid of the ellipse and diffuse across the plot | No acute toxicity nor fatality | 5.3 | 0.00505 | –
Cl.[2H]c1c(NS(C)(=O)=O)c([2H])c2c(C(=O)c3ccc(OCCCN(CCCC)CCCC)cc3)c(CCCC)oc2c1[2H] [Poyendarone, Methanesulfonamide, N-(2-butyl-3-(4-(3-(dibutylamino)propoxy)benzoyl)-1-benzo(4,6,7-d3)-furan-5-yl)hydrochloride] | 0.06472 | 10.7 | 129 | least variability among the beats; also recorded: lack of beat-to-beat variability (BBV) | No acute toxicity nor fatality | 3.19 | – | comparable
